PubChem BioAssay AID1919007 (Molecular Pharmacology Branch, DTP, NCI, 2023)
Values joined by “and” are separate entries in the source; they are usually repeats but may differ in a detail not shown here. Identical values can stand only once.

Tested on: A498 complex spheroids with HUVEC/MSC, growth
Assay: Anticancer human tumor A498 cell line growth inhibition [AhR];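 also: seven day exposure starting three days after spheroid seeding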;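 as to viability, T/C: luminescence signal used as a surrogate for viable cells; luminescence viability scaled so 100% equals DMSO vehicle wells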
Settings: for viability, T/C: stronger effect = lower value
Summary of the method: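 Agents were dosed in half-log steps down from roughly clinical Cmax, or from 10 microM where Cmax was unknown, alone and with AhR antagonists. Read-out: percent test/control growth of tumor spheroids containing HUVEC and MSC stromal cells.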

[1] = curve of first compound, second compound 0.1 µM
[2] = curve of first compound, second compound 0.316 µM
[3] = curve of first compound, second compound 1 µM
[4] = curve of first compound, second compound 3.16 µM
[5] = curve of first compound, second compound 10 µM
[6] = second compound 0.1 µM, first compound 0.0316 µM
[7] = second compound 0.1 µM, first compound 0.1 µM
[8] = second compound 0.1 µM, first compound 0.316 µM
[9] = second compound 0.1 µM, first compound 1 µM
[10] = second compound 0.1 µM, first compound 3.16 µM
[11] = second compound 0.1 µM, first compound 10 µM
[12] = second compound 0.316 µM, first compound 0.0316 µM
[13] = second compound 0.316 µM, first compound 0.1 µM
[14] = second compound 0.316 µM, first compound 0.316 µM
[15] = second compound 0.316 µM, first compound 1 µM
[16] = second compound 0.316 µM, first compound 3.16 µM
[17] = second compound 0.316 µM, first compound 10 µM
[18] = second compound 1 µM, first compound 0.0316 µM
[19] = second compound 1 µM, first compound 0.1 µM
[20] = second compound 1 µM, first compound 0.316 µM
[21] = second compound 1 µM, first compound 1 µM
[22] = second compound 1 µM, first compound 3.16 µM
[23] = second compound 1 µM, first compound 10 µM
[24] = second compound 3.16 µM, first compound 0.0316 µM
[25] = second compound 3.16 µM, first compound 0.1 µM
[26] = second compound 3.16 µM, first compound 0.316 µM
[27] = second compound 3.16 µM, first compound 1 µM
[28] = second compound 3.16 µM, first compound 3.16 µM
[29] = second compound 3.16 µM, first compound 10 µM
[30] = second compound 10 µM, first compound 0.0316 µM
[31] = second compound 10 µM, first compound 0.1 µM
[32] = second compound 10 µM, first compound 0.316 µM
[33] = second compound 10 µM, first compound 1 µM
[34] = second compound 10 µM, first compound 3.16 µM
[35] = second compound 10 µM, first compound 10 µM

CC1(C)CCC(CN2CCN(c3ccc(C(=O)NS(=O)(=O)c4ccc(NCC5CCOCC5)c([N+](=O)[O-])c4)c(Oc4cnc5[nH]ccc5c4)c3)CC2)=C(c2ccc(Cl)cc2)C1 + Cc1ccccc1N=Nc1ccc(NC(=O)c2ccnn2C)c(C)c1
IC50 [1]: 8580 nM | IC50 [2]: > 10000 nM | IC50 [3]: 8780 nM | IC50 [4]: > 10000 nM | IC50 [5]: 8770 nM | viability, T/C [6]: 88.7% | viability, T/C [7]: 89.5% | viability, T/C [8]: 87.9% | viability, T/C [9]: 86.6% | viability, T/C [10]: 76.8% | viability, T/C [11]: 45.8% | viability, T/C [12]: 99.9% | viability, T/C [13]: 98.2% | viability, T/C [14]: 95.6% | viability, T/C [15]: 87.5% | viability, T/C [16]: 75.9% | viability, T/C [17]: 52.3% | viability, T/C [18]: 84.7% | viability, T/C [19]: 87.4% | viability, T/C [20]: 83.6% | viability, T/C [21]: 72% | viability, T/C [22]: 66.5% | viability, T/C [23]: 47.8% | viability, T/C [24]: 83% | viability, T/C [25]: 86.7% | viability, T/C [26]: 91.3% | viability, T/C [27]: 76.9% | viability, T/C [28]: 66.7% | viability, T/C [29]: 50.5% | viability, T/C [30]: 88.3% | viability, T/C [31]: 86.7% | viability, T/C [32]: 84.6% | viability, T/C [33]: 77.6% | viability, T/C [34]: 78.5% | viability, T/C [35]: 46%

Nc1ncn(C2CC(O)C(CO)S2)c(=O)n1 (stereo not drawn) + CC(CO)NC(=O)c1cc(-c2ccc(Cl)cc2)nn(-c2cnn(C)c2)c1=O
IC50 [1]: > 300 nM | IC50 [2]: > 300 nM | IC50 [3]: > 300 nM | IC50 [4]: > 300 nM | IC50 [5]: > 300 nM | viability, T/C (second compound 0.1 µM, first compound 0.000949 µM): 98% | viability, T/C (second compound 0.1 µM, first compound 0.003 µM): 101% | viability, T/C (second compound 0.1 µM, first compound 0.00949 µM): 96.3% | viability, T/C (second compound 0.1 µM, first compound 0.03 µM): 93.8% | viability, T/C (second compound 0.1 µM, first compound 0.0949 µM): 83.6% | viability, T/C (second compound 0.1 µM, first compound 0.3 µM): 68.8% | viability, T/C (second compound 0.316 µM, first compound 0.000949 µM): 93% | viability, T/C (second compound 0.316 µM, first compound 0.003 µM): 109% | viability, T/C (second compound 0.316 µM, first compound 0.00949 µM): 95.5% | viability, T/C (second compound 0.316 µM, first compound 0.03 µM): 86% | viability, T/C (second compound 0.316 µM, first compound 0.0949 µM): 83.4% | viability, T/C (second compound 0.316 µM, first compound 0.3 µM): 72.1% | viability, T/C (second compound 1 µM, first compound 0.000949 µM): 96.5% | viability, T/C (second compound 1 µM, first compound 0.003 µM): 99% | viability, T/C (second compound 1 µM, first compound 0.00949 µM): 98.2% | viability, T/C (second compound 1 µM, first compound 0.03 µM): 92.5% | viability, T/C (second compound 1 µM, first compound 0.0949 µM): 87.4% | viability, T/C (second compound 1 µM, first compound 0.3 µM): 70.3% | viability, T/C (second compound 3.16 µM, first compound 0.000949 µM): 87.5% | viability, T/C (second compound 3.16 µM, first compound 0.003 µM): 90.9% | viability, T/C (second compound 3.16 µM, first compound 0.00949 µM): 105% | viability, T/C (second compound 3.16 µM, first compound 0.03 µM): 76.6% | viability, T/C (second compound 3.16 µM, first compound 0.0949 µM): 69.7% | viability, T/C (second compound 3.16 µM, first compound 0.3 µM): 70.6% | viability, T/C (second compound 10 µM, first compound 0.000949 µM): 74.9% | viability, T/C (second compound 10 µM, first compound 0.003 µM): 78.3% | viability, T/C (second compound 10 µM, first compound 0.00949 µM): 78.3% | viability, T/C (second compound 10 µM, first compound 0.03 µM): 71.9% | viability, T/C (second compound 10 µM, first compound 0.0949 µM): 65% | viability, T/C (second compound 10 µM, first compound 0.3 µM): 59.3%

COc1cc(C2c3cc4c(cc3C(OC3OC5COC(C)OC5C(O)C3O)C3COC(=O)C23)OCO4)cc(OC)c1O (stereo not drawn) + Cc1cncc(-c2nc(NCCc3c[nH]c4ccccc34)c3ncn(C(C)C)c3n2)c1
IC50 [1]: > 10000 nM | IC50 [2]: > 10000 nM | IC50 [3]: > 10000 nM | IC50 [4]: 3640 nM | IC50 [5]: < 31.6 nM | viability, T/C [6]: 79.4% | viability, T/C [7]: 73% | viability, T/C [8]: 73.3% | viability, T/C [9]: 68.1% | viability, T/C [10]: 62.4% | viability, T/C [11]: 52.2% | viability, T/C [12]: 83.7% | viability, T/C [13]: 76.6% | viability, T/C [14]: 79.9% | viability, T/C [15]: 69% | viability, T/C [16]: 59.9% | viability, T/C [17]: 59% | viability, T/C [18]: 79.8% | viability, T/C [19]: 74% | viability, T/C [20]: 74.4% | viability, T/C [21]: 60.5% | viability, T/C [22]: 56.3% | viability, T/C [23]: 50.1% | viability, T/C [24]: 61.4% | viability, T/C [25]: 63.6% | viability, T/C [26]: 66.9% | viability, T/C [27]: 56.8% | viability, T/C [28]: 47.1% | viability, T/C [29]: 43.2% | viability, T/C [30]: 3.97% | viability, T/C [31]: 4.03% | viability, T/C [32]: 4.95% | viability, T/C [33]: 4.99% | viability, T/C [34]: 5.98% | viability, T/C [35]: 6.6%

CC(CO)NC(=O)c1cc(-c2ccc(Cl)cc2)nn(-c2cnn(C)c2)c1=O (stereo not drawn)
viability, T/C (compound 0.1 µM): 92.3% [middle of 20 runs] | viability, T/C (compound 0.316 µM): 90.5% [middle of 21 runs] | viability, T/C (compound 1 µM): 85.9% [middle of 21 runs] | viability, T/C (compound 3.16 µM): 83.2% [middle of 19 runs] | viability, T/C (compound 10 µM): 68.4% [middle of 19 runs] | IC50 (compound alone, run of 08/08/2022): > 10000 nM

Nc1ccccc1NC(=O)c1ccc(CNC(=O)OCc2cccnc2)cc1 + CC(CO)NC(=O)c1cc(-c2ccc(Cl)cc2)nn(-c2cnn(C)c2)c1=O
IC50 [1]: 963 nM | IC50 [2]: 799 nM | IC50 [3]: 766 nM | IC50 [4]: 703 nM | IC50 [5]: 322 nM | viability, T/C [6]: 89.4% | viability, T/C [7]: 88.8% | viability, T/C [8]: 77.7% | viability, T/C [9]: 44.6% | viability, T/C [10]: 24.5% | viability, T/C [11]: 1.98% | viability, T/C [12]: 79.5% | viability, T/C [13]: 85.8% | viability, T/C [14]: 74% | viability, T/C [15]: 39.5% | viability, T/C [16]: 23.2% | viability, T/C [17]: 2.07% | viability, T/C [18]: 75% | viability, T/C [19]: 75% | viability, T/C [20]: 78.5% | viability, T/C [21]: 39.2% | viability, T/C [22]: 23% | viability, T/C [23]: 4.91% | viability, T/C [24]: 64.5% | viability, T/C [25]: 73.8% | viability, T/C [26]: 71.4% | viability, T/C [27]: 38.1% | viability, T/C [28]: 20.2% | viability, T/C [29]: 1.92% | viability, T/C [30]: 58.2% | viability, T/C [31]: 53.1% | viability, T/C [32]: 55.1% | viability, T/C [33]: 28.7% | viability, T/C [34]: 14.5% | viability, T/C [35]: 0.8%

O=C(C=Cn1cnc(-c2cc(C(F)(F)F)cc(C(F)(F)F)c2)n1)NNc1cnccn1
viability, T/C (compound 0.00949 µM): 99.2% and 101% and 90.7% | viability, T/C (compound 0.03 µM): 94.7% and 85.9% and 72.4% | viability, T/C (compound 0.0949 µM): 49.8% and 49% and 42.5% | viability, T/C (compound 0.3 µM): 34.6% and 34.1% and 25.4% | viability, T/C (compound 0.949 µM): 26.4% and 25% and 20.6% | viability, T/C (compound 3 µM): 23.9% and 17% and 14.4% | IC50 (curve of compound): 99.9 nM and 111 nM and 72.8 nM

COc1cc(C2c3cc4c(cc3C(OC3OC5COC(C)OC5C(O)C3O)C3COC(=O)C23)OCO4)cc(OC)c1O (stereo not drawn) + Cc1ccccc1N=Nc1ccc(NC(=O)c2ccnn2C)c(C)c1
IC50 [1]: > 10000 nM | IC50 [2]: > 10000 nM | IC50 [3]: > 10000 nM | IC50 [4]: 7600 nM | IC50 [5]: 8760 nM | viability, T/C [6]: 73.9% | viability, T/C [7]: 68% | viability, T/C [8]: 63.5% | viability, T/C [9]: 64.6% | viability, T/C [10]: 61.3% | viability, T/C [11]: 49.2% | viability, T/C [12]: 85% | viability, T/C [13]: 76.9% | viability, T/C [14]: 77.4% | viability, T/C [15]: 66.7% | viability, T/C [16]: 59.5% | viability, T/C [17]: 53.2% | viability, T/C [18]: 75.3% | viability, T/C [19]: 71.1% | viability, T/C [20]: 67.5% | viability, T/C [21]: 63.4% | viability, T/C [22]: 52.9% | viability, T/C [23]: 52.7% | viability, T/C [24]: 72.9% | viability, T/C [25]: 68.7% | viability, T/C [26]: 72.6% | viability, T/C [27]: 62.8% | viability, T/C [28]: 55.4% | viability, T/C [29]: 48.6% | viability, T/C [30]: 74.8% | viability, T/C [31]: 73.1% | viability, T/C [32]: 77.2% | viability, T/C [33]: 66.7% | viability, T/C [34]: 61.5% | viability, T/C [35]: 48.5%
